From ChEMBL document CHEMBL2417441, “Synthesis, structure, and cytotoxicity studies of some fungal isochromanes” (J Nat Prod, 2013)
Calls of active or inactive are those of the source. No cut-off for these calls is given here.

Columns and labels:
HCT-116 [1] = assay: Cytotoxicity against human HCT116 cells after 72 hrs by WST-8 assay; type: functional, cell-based; conditions: HCT-116, 72 h
HCT-116 [2] = assay: Induction of apoptosis in human HCT116 cells assessed as DNA fragmentation at 5 uM after 72 hrs by TUNEL assay; type: functional, cell-based
HCT-116 [3] = assay: Induction of apoptosis in human HCT116 cells at 5 uM after 72 hrs by fluorescence microscopic analysis relative to etoposide; type: functional

| SMILES | IC50 (HCT-116 [1]) | Activity (HCT-116 [2]) | fold change (FC) (HCT-116 [3]) |
| --- | --- | --- | --- |
| CC(C)=C1Oc2c(ccc3c2C(=O)O[C@H](C)C3)C1=O | 9.8 µM | – | – |
| CC(C)[C@@H]1Oc2c(ccc3c2[C@@H](O)O[C@H](C)C3)C1=O | > 100 µM | – | – |
| CO[C@H]1O[C@H](C)Cc2ccc3c(c21)O[C@H](C(C)C)C3=O | > 100 µM | – | – |
| CC(C)[C@H]1Oc2c(ccc3c2[C@@H](O)O[C@H](C)C3)C1=O | > 100 µM | – | – |
| C[C@@H](O)Cc1cccc(O)c1CO | > 100 µM | – | – |
| CO[C@H]1O[C@H](C)Cc2ccc3c(c21)O[C@@H](C(C)C)C3=O (relative stereo) | > 100 µM | – | – |
| CC(C)=C1Oc2c(ccc3c2[C@@H](O)O[C@H](C)C3)C1=O [(+)-PSEUDODEFLECTUSIN] | 5 µM | Active | 2 |
| CC[C@@]1(O)C(=O)OCc2c1cc1n(c2=O)Cc2cc3ccccc3nc2-1 [CAMPTOTHECIN] | 0.016 µM | – | – |
| CO[C@H]1O[C@H](C)Cc2ccc3c(c21)OC(=C(C)C)C3=O [USTUSORANE C] | 5.9 µM | – | – |
